Data on three molecules can be found in patent US11434239B2, “Aza-dihydro-acridone derivatives” (Artax Biopharma Inc., priority 2017, dated 2022).

Like-named read-outs stand apart in the source and are kept apart here. Bounds are passed on as bounds.

In general, inhibition refers to the relative decrease from the control value, in per cent.

The target of one series is T1, CYP2D6 (Homo sapiens, UniProt P10635).
T1 construct: premixing appropriate volumes of buffer, microsomes and substrate; from tissue
T1 sequence (P10635 whole entry): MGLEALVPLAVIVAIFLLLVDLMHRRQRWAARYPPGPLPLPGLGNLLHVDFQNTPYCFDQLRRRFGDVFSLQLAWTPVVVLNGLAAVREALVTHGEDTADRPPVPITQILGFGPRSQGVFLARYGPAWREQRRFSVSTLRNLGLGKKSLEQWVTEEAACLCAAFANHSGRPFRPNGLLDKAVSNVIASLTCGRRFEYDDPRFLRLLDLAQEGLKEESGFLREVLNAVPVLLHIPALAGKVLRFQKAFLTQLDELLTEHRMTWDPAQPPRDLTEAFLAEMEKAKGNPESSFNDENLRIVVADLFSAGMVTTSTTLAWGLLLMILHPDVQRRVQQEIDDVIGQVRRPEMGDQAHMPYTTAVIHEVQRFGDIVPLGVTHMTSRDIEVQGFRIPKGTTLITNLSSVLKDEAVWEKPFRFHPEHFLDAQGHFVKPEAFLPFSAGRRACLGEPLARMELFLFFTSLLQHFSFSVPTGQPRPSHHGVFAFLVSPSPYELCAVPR
Put plainly: CYP inhibition, microsomes. It is filed as in vitro ADME. The conditions noted are these: metabolite dextrorphan, class symbols. The procedure: (§1) For each isozyme, microsomes-buffer-substrate mixture (MBS mix) is prepared by premixing appropriate volumes of buffer, microsomes and substrate. MBS mixture (179 μL) is transferred to a 96-well reaction plate. An aliquot (1 μL) is spiked from corresponding wells of Test Item stock solution plate to reaction plate. The reaction plate is pre-incubated for 5 minutes at 37° C. Reaction is initiated by the addition of 20 μL of NADPH solution. Each experiment is performed in duplicate. Reaction plate is incubated for predetermined time at 37° C. and quenched using either 200 μL of acetonitrile (for CYP2C9, CYP2D6, CYP2C19 and CYP3A4) or 200 μL of a mixture of 70:30 1% formic acid:acetonitrile (for CYP1A2).

The target of a further series is T2, CYP1A2 (Homo sapiens, UniProt P05177).
T2 construct: premixing appropriate volumes of buffer, microsomes and substrate; from tissue
T2 sequence (P05177 1-516): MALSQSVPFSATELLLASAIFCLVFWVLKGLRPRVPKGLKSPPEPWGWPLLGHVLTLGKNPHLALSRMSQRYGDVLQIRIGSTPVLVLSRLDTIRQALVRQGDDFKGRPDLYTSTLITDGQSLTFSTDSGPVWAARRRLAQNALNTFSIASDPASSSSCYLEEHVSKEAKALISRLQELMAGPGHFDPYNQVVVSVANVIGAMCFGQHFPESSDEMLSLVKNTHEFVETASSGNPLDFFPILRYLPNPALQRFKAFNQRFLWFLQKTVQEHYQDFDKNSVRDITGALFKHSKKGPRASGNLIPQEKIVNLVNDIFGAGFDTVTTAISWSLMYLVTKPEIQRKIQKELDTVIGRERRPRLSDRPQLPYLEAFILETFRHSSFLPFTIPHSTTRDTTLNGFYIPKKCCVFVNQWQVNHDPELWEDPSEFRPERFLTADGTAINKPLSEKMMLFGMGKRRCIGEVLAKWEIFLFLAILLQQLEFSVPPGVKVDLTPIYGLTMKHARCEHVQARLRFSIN
Put plainly: CYP inhibition, microsomes. The class given is in vitro ADME. The following applies: metabolite acetaminophen. On the procedure: as §1

The next series addresses T3, CYP2C9 (Homo sapiens, UniProt P11712).
T3 construct: premixing appropriate volumes of buffer, microsomes and substrate; from tissue
Put plainly: CYP inhibition, microsomes. It is filed as in vitro ADME. The conditions noted are these: metabolite 4-hydroxy diclofenac. The procedure: as §1

A further series deals with T4, CYP2C19 (Homo sapiens, UniProt P33261).
T4 construct: premixing appropriate volumes of buffer, microsomes and substrate; from tissue
T4 sequence (P33261 whole entry): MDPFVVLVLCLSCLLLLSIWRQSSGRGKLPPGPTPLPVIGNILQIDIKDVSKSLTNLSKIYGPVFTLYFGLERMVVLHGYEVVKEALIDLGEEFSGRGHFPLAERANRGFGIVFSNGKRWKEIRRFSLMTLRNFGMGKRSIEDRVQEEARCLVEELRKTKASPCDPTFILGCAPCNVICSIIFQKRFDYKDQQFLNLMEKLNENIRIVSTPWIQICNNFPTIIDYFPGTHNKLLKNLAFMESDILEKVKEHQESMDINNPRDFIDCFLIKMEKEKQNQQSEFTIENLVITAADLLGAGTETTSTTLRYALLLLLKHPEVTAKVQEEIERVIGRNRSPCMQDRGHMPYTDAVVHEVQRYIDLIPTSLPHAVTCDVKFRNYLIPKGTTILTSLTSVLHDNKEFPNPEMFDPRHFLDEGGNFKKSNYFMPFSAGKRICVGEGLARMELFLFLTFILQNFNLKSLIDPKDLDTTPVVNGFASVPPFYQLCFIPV
Kind of series: CYP inhibition, microsomes. It is filed as in vitro ADME. The following applies: metabolite 4′-hydroxy mephenytoin, class symbols. The procedure:
as §1

Another series addresses T5, CYP3A4 (Homo sapiens, UniProt P08684).
T5 construct: premixing appropriate volumes of buffer, microsomes and substrate; from tissue
Put plainly: CYP inhibition, microsomes. It is filed as in vitro ADME. The procedure:
as §1

Series [1] can be described thus: Microsomal stability (intrinsic clearance study). It is filed as in vitro ADME. The following applies: 0.5 mg/mL protein. On the procedure:
Intrinsic clearance studies are performed individually with mouse, rat and human liver microsomes at 0.5 mg/mL protein concentration. Briefly, for protein concentration 0.5 mg/mL assay, liver microsomal protein (12.5 uL), NAPDH (50 uL) and phosphate buffer (435 uL) are co-incubated (pre-incubation) in a 96-well deep well plate in an orbital incubator (10 min, 37° C.). Reactions are initiated by the addition of 2.5 uL of test item working stock solution (100 uM). Aliquots (50 uL) are withdrawn from the reaction tube at 0, 5, 10, 20 and 30 minutes and the reaction is immediately terminated by transferring to a 96 deep well plate containing 50 uL of acetonitrile. Verapamil is used as a positive control in mouse, rat and human liver microsomes. To the quenched samples internal standard is added and vortex mixed followed by centrifugation at 4000 rpm for 10 minutes and an aliquot of supernatant is taken for LC-MS/MS analysis. Samples are analyzed by a suitable fit-for-purpose multiple reaction monitoring method developed on LC-MS/MS using and API 4000 mass spectrometer to estimate the area ratio (analyte peak area/internal standard peak area).

Another series deals with T6, hERG (Homo sapiens, UniProt Q12809).
T6 construct: expressed in transfected cells
T6 sequence (Q12809 whole entry): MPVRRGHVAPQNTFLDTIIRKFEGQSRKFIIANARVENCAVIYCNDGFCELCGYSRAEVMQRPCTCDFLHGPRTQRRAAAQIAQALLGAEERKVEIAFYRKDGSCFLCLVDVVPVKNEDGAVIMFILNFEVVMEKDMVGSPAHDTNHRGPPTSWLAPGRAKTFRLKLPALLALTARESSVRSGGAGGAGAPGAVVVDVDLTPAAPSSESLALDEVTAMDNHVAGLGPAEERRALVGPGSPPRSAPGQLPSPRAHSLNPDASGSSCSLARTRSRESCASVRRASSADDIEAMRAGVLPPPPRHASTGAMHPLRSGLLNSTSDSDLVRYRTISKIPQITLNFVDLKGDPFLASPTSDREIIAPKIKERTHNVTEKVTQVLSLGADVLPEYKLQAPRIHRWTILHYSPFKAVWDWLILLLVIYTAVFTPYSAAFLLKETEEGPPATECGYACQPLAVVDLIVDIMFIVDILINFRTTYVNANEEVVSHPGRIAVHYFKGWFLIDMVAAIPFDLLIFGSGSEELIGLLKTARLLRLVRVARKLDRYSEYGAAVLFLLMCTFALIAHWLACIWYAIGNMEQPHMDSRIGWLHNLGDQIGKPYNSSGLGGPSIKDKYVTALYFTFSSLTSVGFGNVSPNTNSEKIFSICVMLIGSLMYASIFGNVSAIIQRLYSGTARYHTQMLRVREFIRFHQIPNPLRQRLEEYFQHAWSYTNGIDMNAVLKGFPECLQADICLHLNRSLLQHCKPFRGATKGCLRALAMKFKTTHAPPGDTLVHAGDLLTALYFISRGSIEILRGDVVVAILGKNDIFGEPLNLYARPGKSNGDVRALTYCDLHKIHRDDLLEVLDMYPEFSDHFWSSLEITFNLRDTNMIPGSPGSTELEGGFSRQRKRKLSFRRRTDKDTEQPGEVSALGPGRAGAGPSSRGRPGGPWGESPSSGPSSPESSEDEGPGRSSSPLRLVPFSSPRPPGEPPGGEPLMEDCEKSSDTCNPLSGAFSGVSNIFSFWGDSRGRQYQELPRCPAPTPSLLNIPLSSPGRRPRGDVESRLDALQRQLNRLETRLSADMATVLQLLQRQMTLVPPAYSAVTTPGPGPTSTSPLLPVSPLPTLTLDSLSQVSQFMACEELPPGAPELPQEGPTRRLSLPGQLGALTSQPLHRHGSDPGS
Kind of series: hERG inhibition, IKr current, patch clamp in HEK cells stably transfected with the hERG clone. It is filed as cell-based. The following applies: for inhibition at 1 µM / inhibition at 3 µM / inhibition at 10 µM / inhibition at 30 µM: human, HEK cells stably transfected with hERG; for inhibition at 1 µM: pH 7.4, 1 μM; for inhibition at 3 µM: pH 7.4, 3 μM; for inhibition at 10 µM: pH 7.4, 10 μM; for inhibition at 30 µM: pH 7.4, 30 μM; for IC50: test concentrations 1, 3, 10 and 30 μM, read-out: hERG IC 50 (IKr current). The procedure:
HEK cells stably transfected with the hERG clone are maintained at 37±2° C. in a 5% CO2 incubator. The cells are initially revived and grown in DMEM/F12+GlutaMAX-I medium supplemented with 9% fetal bovine serum (FBS) and antibiotics (Penicillin 100 IU/mL Streptomycin 100 μg/mL) (complete medium). Furthermore, the cells are continuously maintained and passaged in complete media in addition to the appropriate concentration of selection antibiotic (Geneticin (G418) 200 μg/mL) (Selection media). The cells are sub cultured every 2-3 days and medium is changed with complete medium at least a day before the experiment.
The cells are harvested on the day of experiment, dislodged and suspended in sterile filtered external solution (NaCl 140 mM, KCl 4 mM, MgCl2 1 mM, CaCl2 2 mM, D-Glucose monohydrate 5 mM, Hepes/NaOH 10 mM, pH 7.4, Osmolarity:298+/−5 mOsmol).
The NPC®-1 chip of the Port-a-Patch® is filled with 5 μL of internal solution (KCl 50 mM, NaCl 10 mM, KFl 60 mM, EGTA 20 mM, Hepes/KOH 10 mM, pH 7.2, Osmolarity: 285+/−5 mOsmol) and it is screwed onto the chip holder. The Faraday cage is then fixed on the chip holder, such that the external electrode is placed near to the chip aperture. 5 μL of external solution is added to the center of the aperture so that the external electrode is also in contact with the solution.
The experiment is be initiated. […] The suction automatically attracts a cell to the aperture, resulting in an increase in the chip resistance. When the cell is captured and the set threshold for the resistance is reached, the software recognizes this increase in resistance and proceeds to the next step of the sealing procedure. 20 μL of seal enhancer solution (NaCl 80 mM, KCl 4 mM, MgCl2 10 mM, CaCl2 35 mM, Hepes (Na+salt)/HCl pH 7.4, Osmolarity: 298+/−5 mOsmol) is added 2-3 times. When the threshold resistance is reached, Patch Control automatically moves to the step of improving the seal. When the desirable resistance (Rpip) is reached, whole cell mode is attained and maintained.
Finally, hERG protocol is selected to run the experiment. The seal enhancer solution is replaced with 20 μL external solution after 2-4 rinses and then the test item is added (from lower to higher concentration) and checked for current inhibition. All the experiments are performed at ambient temperature (22-25° C.).
A schematic diagram of the Pulse protocol: Cells are stimulated every 10 seconds using the following protocol. The holding potential, sweep intervals and the depolarization/repolarization potentials are furnished in the table below.
Once the stable current is attained (at least 2-5 minutes) vehicle control is added and the current measured till the stable current is achieved. 3-5 consecutive data points from the last stable current phase are considered for further analysis. […] The system performs on-line analysis for several parameters which include functions that acquire data from traces and functions that perform calculations on the results of other functions.
A general note: The hERG channel carries a current that helps repolarise heart muscle cells.

Where [2] appears, read: column CYP3A4^a (footnote a not given), class symbols, read-out: CYP IC50 CYP3A4^a.
Setting [3] is: column CYP3A4^b (footnote b not given), class symbols, read-out: CYP IC50 CYP3A4^b.
Where [4] appears, read: human liver microsomes, read-out: Microsomal stability (T½ min) Human.
The mark [5] stands for this setting: mouse liver microsomes, read-out: Microsomal stability (T½ min) Mouse.
Setting [6] is: rat liver microsomes, read-out: Microsomal stability (T½ min) Rat.
Where [7] appears, read: mean of two trials, read-out: Percent Inhibition Mean (%) (IKr current).
Where [8] appears, read: read-out: Percent Inhibition Trial I (IKr current).
[9] abbreviates: read-out: Percent Inhibition Trial II (IKr current).

T5 sequence (P08684 whole entry): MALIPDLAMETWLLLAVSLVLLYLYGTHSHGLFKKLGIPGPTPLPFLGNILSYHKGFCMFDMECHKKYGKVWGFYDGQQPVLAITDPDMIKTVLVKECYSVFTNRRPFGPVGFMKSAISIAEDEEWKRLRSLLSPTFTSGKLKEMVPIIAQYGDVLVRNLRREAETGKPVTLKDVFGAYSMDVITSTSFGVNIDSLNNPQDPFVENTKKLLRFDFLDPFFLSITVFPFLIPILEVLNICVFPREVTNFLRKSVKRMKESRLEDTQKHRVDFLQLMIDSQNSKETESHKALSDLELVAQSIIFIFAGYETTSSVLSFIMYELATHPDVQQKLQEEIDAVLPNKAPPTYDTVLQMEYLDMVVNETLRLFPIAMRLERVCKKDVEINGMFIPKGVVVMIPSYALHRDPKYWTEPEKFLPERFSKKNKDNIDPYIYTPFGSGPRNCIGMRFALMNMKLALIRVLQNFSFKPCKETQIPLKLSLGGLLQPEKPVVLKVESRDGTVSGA
T3 sequence (P11712 whole entry): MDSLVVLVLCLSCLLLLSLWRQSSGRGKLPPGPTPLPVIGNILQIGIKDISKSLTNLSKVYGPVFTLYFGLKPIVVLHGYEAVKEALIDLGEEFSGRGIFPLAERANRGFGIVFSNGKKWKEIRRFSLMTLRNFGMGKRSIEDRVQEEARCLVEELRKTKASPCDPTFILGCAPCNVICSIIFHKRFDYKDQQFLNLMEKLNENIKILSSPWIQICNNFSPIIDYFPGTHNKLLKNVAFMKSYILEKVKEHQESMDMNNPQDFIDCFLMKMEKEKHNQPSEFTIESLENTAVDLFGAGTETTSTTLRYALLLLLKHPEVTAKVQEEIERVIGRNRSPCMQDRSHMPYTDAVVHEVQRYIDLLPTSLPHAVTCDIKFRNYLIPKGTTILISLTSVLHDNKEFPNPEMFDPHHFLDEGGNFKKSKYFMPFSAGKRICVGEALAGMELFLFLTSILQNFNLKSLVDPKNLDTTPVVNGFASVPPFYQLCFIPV

Turning to `Cn1c2c(c(=O)c3ccccc31)CN(Cc1ccccc1)CC2` [Compound I-1, 2-benzyl-5-methyl-1,2,3,4-tetrahydro(5H, 10H)-benzo(b)-1,6-naphthyridin-10-one], the IC50 is at most 5 µM at CYP2D6; 20 to 50 µM at CYP1A2 (class symbols); above 50 µM at CYP2C9 (class symbols); 20 to 50 µM at CYP2C19; above 50 µM at CYP3A4 (setting [2]); above 50 µM on CYP3A4 (setting [3]). In addition, the IC50 at hERG came to 18.4 µM. Besides, the values for the half-life at 0.5 uM in series [1] (setting [4]), in series [1] (setting [5]) and in series [1] (setting [6]) were at most 30 min, 10 to 30 min and 10 to 30 min, respectively. For the same molecule, the inhibition at 1 µM at hERG (setting [7]) came to 9.04%; at hERG (setting [8]) it was 9.22%; at hERG (setting [9]), 8.85%. The results for the inhibition at 3 µM at hERG (setting [7]), at hERG (setting [8]) and at hERG (setting [9]) were 20.9%, 20.4% and 21.4%, respectively. Further, the values for the inhibition at 10 µM on hERG (setting [7]), at hERG (setting [8]) and at hERG (setting [9]) were 37.8%, 39.6% and 35.9%, respectively. Further, the inhibition at 30 µM on hERG (setting [7]) was 58.6%; on hERG (setting [8]), 58.9%; on hERG (setting [9]), 58.3%.
On to `CN1c2ccccc2C(O)C2CN(Cc3ccccc3)CCC21` (centres unmarked) [Ia-1], for which the IC50 at CYP2D6 was at most 5 µM; at CYP1A2 (class symbols) it was 5 to 20 µM; on CYP2C19 it was at most 5 µM; on CYP3A4 (setting [2]), at most 5 µM; on CYP3A4 (setting [3]), 20 to 50 µM; on hERG, 25.7 µM. The half-life at 0.5 uM in series [1] (setting [4]) is 10 to 30 min; in series [1] (setting [5]), below 10 min; in series [1] (setting [6]) it was below 10 min. The inhibition at 1 µM on hERG (setting [7]) was 11.4%; at hERG (setting [8]), 12.9%; on hERG (setting [9]), 9.88%. Besides, the results for the inhibition at 3 µM on hERG (setting [7]), on hERG (setting [8]) and on hERG (setting [9]) were 21.9%, 21.3% and 22.5%, respectively. Moreover, the inhibition at 10 µM was 28.9% at hERG (setting [7]), 29.4% on hERG (setting [8]) and 28.3% on hERG (setting [9]). Further, the values for the inhibition at 30 µM at hERG (setting [7]), on hERG (setting [8]) and on hERG (setting [9]) were 54.4%, 54.8% and 54.1%, respectively.
Turning to `O=c1c2c([nH]c3cc(F)c(F)cc13)CCN(Cc1ccccc1)C2` [Ib-22], the IC50 at CYP2D6 is at most 5 µM; at CYP1A2 (numeric bound) it was above 12.5 µM; at CYP2C9 (numeric bound), above 12.5 µM; on CYP2C19 it was 5 to 20 µM; at CYP3A4 (CYP3A4^a, numeric bound, read-out: CYP IC50 CYP3A4^a), above 12.5 µM; at CYP3A4 (numeric bound, read-out: CYP IC50 CYP3A4^b), above 12.5 µM. Further, the IC50 at hERG was found to be 47.3 µM. Besides, the half-life at 0.5 uM in series [1] (setting [4]) was at most 30 min; in series [1] (setting [5]) it was 10 to 30 min; in series [1] (setting [6]), 10 to 30 min. For the same molecule, the inhibition at 1 µM on hERG (setting [7]) came to 4.5%; on hERG (setting [8]), 5.62%; on hERG (setting [9]), 3.37%. Besides, the inhibition at 3 µM stood at 15.3% on hERG (setting [7]), 16% at hERG (setting [8]) and 14.6% on hERG (setting [9]). For the same molecule, the figures for the inhibition at 10 µM at hERG (setting [7]), at hERG (setting [8]) and on hERG (setting [9]) were 21.4%, 23.8% and 19%, respectively. The values for the inhibition at 30 µM on hERG (setting [7]), on hERG (setting [8]) and at hERG (setting [9]) were 30.1%, 34% and 26.2%, respectively.
